This note sets out measurements from paper PMC10816625, “Targeting Alzheimer’s Disease: Evaluating the Efficacy of C-1 Functionalized N-Aryl-Tetrahydroisoquinolines as Cholinergic Enzyme Inhibitors and Promising Therapeutic Candidates” (International Journal of Molecular Sciences, 2024).

“Also recorded” adds a separate entry of the source.

One data set is described as follows: in vitro. The settings on record: for Papp: pig, PAMPA; for PAMPA-BBB Permeability Pe: porcine polar brain lipids, UPLC quantification. The protocol:
The assay was performed according to the method reported by Di et al. with slight modification. Commercial drugs, verapamil, and caffeine were used to validate the protocol. […] Each sample was analyzed with at least three independent experiments in three wells.

The target in the next data set is T1, eeAChE (Electrophorus electricus, UniProt O42275).
T1 construct: purchased Sigma-Aldrich C3389
As to the kind of experiment: biochemical. Type of data set: biochemical. The note with it: for IC50: Table 1, mean ± SD; for Selectivity Index for AChE: IC50(BChE)/IC50(AChE). How it is done: (§1) The abilities of synthesized 22 compounds to inhibit AChE and BuChE activity were determined following Ellman’s procedure using a Perkin Elmer Lambda 35 spectrophotometer with thermostated 1.00 cm quartz cells. AChE’s and BuChE’s stock solutions were diluted with 20 mM TRIS to give 1 unit per mL of enzymes’ activity. […] A 0.01 M DTNB solution was prepared with 0.1 M phosphate buffer (pH 7) containing 0.15% (w/v) sodium bicarbonate. A 0.1 M phosphate buffer (pH 8) was used for assay. pH was adjusted to 8.0 ± 0.1 by adding aliquots of concentrated HCl. Stock solutions (10 mM) of investigated compounds were prepared daily by dissolving solid compounds in DMSO. Diluted solutions were also prepared in DMSO.
(§2) Briefly, enzymes’ assays were prepared as follows. […] Thereafter, 20 μL of ASChI or BSChCI was added, after which the reaction was initiated. […] For the blank value, the addition of 20 μL of buffer replaced the enzyme solution while an addition of 7 μL of DMSO replaced the inhibitor solution. The control solution contained 7 μL of DMSO instead of the inhibitor. The screening test was performed at a 1 × 10^−5 M concentration, and the compounds with more than 50% of inhibition were further assayed using dilution series of up to eight increasing concentrations (10^−5 M to 10^−9 M). The inhibition potency was presented as the dependence on the relative enzyme activity (REA) as the function of the compound’s concentration. IC50 values were determined graphically from Hill curves using Origin 9 Microsoft Windows.

Another data set addresses T2, eqBuChE (Equus caballus, UniProt P81908).
T2 construct: butyrylcholinesterase (BuChE) from horse serum (C1057); purchased Sigma-Aldrich C1057; host or cells: horse serum
In words: biochemical. The settings on record: Table 1; preincubation 6 min, incubation 6 min, 37 °C; mean ± SD; read-out: IC50 BuChE. The protocol: as §1, §2

The target of data set [1] is T3, AChE (Electrophorus electricus, UniProt O42275).
T3 construct: purchased Sigma-Aldrich C3389
As to the kind of experiment: Kinetic study of AChE inhibition (Lineweaver-Burk). The note with it: for Type of Inhibition (AChE): Lineweaver-Burk plot; for Ki: preincubation 6 min, incubation 2 min. The format is biochemical. How it is done: (§3) Kinetic studies of ChE enzymes were also performed using the above-mentioned modified Ellman’s method. The preincubation time was 6 min, while the incubation time was 2 min. The type of enzyme inhibition was justified by the Lineweaver–Burk plot (double reciprocal plot) for selected inhibitor concentrations, and substrate concentrations ranged from 0.01 to 1 mM. The kinetic parameters Km, Vmax, and Ki were determined. Graphs were plotted using Origin9 for Microsoft Windows.

In data set [2] the target is T3, AChE. As to the kind of experiment: Trp fluorescence-quenching titration of AChE. Type of data set: binding. The note with it: 5 IU/mL AChE. How it is done:
(§4) Fluorescence titration studies were conducted using the Agilent Cary Eclipse fluorescence spectrophotometer. Fluorescence-quenching spectra were recorded within the wavelength range of 320–450 nm, with an excitation at 295 nm at room temperature. Excitation and emission slit widths were both set at 5 nm, and the scanning rate was fixed at 9600 nm/min. The concentration of enzymes was 5 IU/mL. The incubation time between each addition of THIQ aliquots was 6 min.

Data set [3] in a line: logP determination by UPLC. Type of data set: physicochemical. The note with it: reversed-phase ACQUITY UPLC BEH C18 column; UPLC method. The protocol:
. The column used for logP determinations was ACQUITY UPLC BEH C18 column with the dimensions 1.7 μm × 100 mm × 2.1 mm (Waters). The measurements were performed in the isocratic mode. The eluent flow rate was 0.25 mL min^−1, and the injection volume was 5 μL. The mobile phase composition was a different percentage of acetonitrile and H2O (we ran a chromatogram for each compound with different eluent compositions and the acetonitrile fraction ranging from 64% to 91%). The wavelength of the optical detection was 256 nm, the retention times for every examined compound under certain experimental conditions were determined. At the beginning, the compound’s retention factor, k’, was determined for different percentages of acetonitrile in the mobile phases. The column’s dead time was determined by the injection of sodium bromide. After that, the retention factors for a pure aqueous eluent (log kw) were determined for the compounds with previously known logPo/w values as well as for the investigated compounds. […]

The target in data set [4] is T4, BuChE (Equus caballus, UniProt P81908).
T4 construct: butyrylcholinesterase (BuChE) from horse serum (C1057); purchased Sigma-Aldrich C1057; host or cells: horse serum
In words: Kinetic study of BuChE inhibition (Lineweaver-Burk). The format is biochemical. How it is done: as §3

In data set [5] the target is T4, BuChE. As to the kind of experiment: Trp fluorescence titration of BuChE. Type of data set: binding. The note with it: 5 IU/mL BuChE. The protocol: as §4
Where [6] appears, read: preincubation 6 min, incubation 6 min, 37 °C.
[7] abbreviates: excitation 295 nm, room temperature.

T1 sequence (O42275 24-633): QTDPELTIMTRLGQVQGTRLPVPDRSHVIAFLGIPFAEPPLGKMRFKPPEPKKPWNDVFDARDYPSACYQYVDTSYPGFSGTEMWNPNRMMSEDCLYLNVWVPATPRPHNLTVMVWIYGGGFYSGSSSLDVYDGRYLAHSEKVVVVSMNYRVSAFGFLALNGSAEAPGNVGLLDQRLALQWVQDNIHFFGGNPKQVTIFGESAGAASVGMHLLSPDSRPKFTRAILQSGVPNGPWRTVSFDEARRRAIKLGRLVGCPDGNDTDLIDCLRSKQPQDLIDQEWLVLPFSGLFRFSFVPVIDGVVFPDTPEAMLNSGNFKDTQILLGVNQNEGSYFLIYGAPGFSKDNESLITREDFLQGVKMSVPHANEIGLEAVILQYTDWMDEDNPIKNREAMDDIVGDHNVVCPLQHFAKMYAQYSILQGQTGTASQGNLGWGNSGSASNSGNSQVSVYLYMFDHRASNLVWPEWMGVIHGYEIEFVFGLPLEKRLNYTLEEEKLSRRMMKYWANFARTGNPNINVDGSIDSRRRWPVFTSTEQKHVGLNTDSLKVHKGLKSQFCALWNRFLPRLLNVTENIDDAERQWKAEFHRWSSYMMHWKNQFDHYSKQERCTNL
T3 sequence (O42275 24-633): as above
T4 sequence (P81908 whole entry): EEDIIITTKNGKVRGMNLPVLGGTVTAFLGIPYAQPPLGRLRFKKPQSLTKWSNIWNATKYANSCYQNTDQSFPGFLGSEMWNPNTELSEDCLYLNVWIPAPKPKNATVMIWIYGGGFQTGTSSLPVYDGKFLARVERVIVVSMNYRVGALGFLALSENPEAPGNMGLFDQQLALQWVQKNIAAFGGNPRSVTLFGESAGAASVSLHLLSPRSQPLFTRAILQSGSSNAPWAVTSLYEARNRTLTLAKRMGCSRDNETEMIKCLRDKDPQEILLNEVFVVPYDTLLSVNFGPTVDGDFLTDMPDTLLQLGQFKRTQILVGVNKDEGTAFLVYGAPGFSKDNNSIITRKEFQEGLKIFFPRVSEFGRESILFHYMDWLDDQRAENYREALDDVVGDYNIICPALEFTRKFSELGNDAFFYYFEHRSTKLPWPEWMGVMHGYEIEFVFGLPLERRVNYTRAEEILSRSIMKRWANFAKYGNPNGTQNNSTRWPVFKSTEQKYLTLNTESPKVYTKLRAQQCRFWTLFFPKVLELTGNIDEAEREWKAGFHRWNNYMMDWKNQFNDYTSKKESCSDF
T2 sequence (P81908 whole entry): as above

`Cn1c(=O)c2c(ncn2C)n(C)c1=O` [Caffeine, reference compound] displayed an apparent permeability (Papp) in “in vitro” of 1.47 ×10⁻⁶ cm/s.
Turning to `COc1cc2c(cc1OC)C(CCC(=O)CCc1ccccc1)N(c1ccccc1)CC2` (stereo not shown) [Compound 3k], the 50% inhibitory concentration (IC50) against eeAChE (setting [6]) was 4.02 ± 0.19 µM; on eqBuChE it was over 10 µM.
On to `COc1cc2c(cc1OC)C(CC(=O)c1ccccc1)N(c1ccccc1)CC2` (stereo not shown) [Compound 3c], for which, on eeAChE, the “Selectivity Index for AChE” value is recorded as over 5. The same compound showed a 50% inhibitory concentration (IC50) at eeAChE (setting [6]) of 1.95 ± 0.23 µM. Moreover, at eeAChE (compared to compound 2c), the “fold increase in inhibitory activity towards AChE” value was determined as 2.5 fold. Besides, the IC50 at eqBuChE is over 10 µM. Besides, at AChE [1], the “Type of Inhibition (AChE)” value is “Non-competitive” and the Ki is 1780 ± 100 nM. Moreover, the “Quenching of Trp fluorescence of AChE” value at AChE [2] was “no quenching of Trp fluorescence”. For the same compound, the chromatographic logP in data set [3] was 3.39. In addition, in the data set “in vitro”, the apparent permeability coefficient (Papp) was found to be 47.5 ×10⁻⁶ cm/s and the “PAMPA-BBB Permeability Pe” value is on record as “successfully crossed the artificial blood−brain barrier; also recorded: able to cross the BBB”.
Take `COc1cc2c(cc1OC)C(C#N)N(c1ccc(C)cc1)CC2` (stereo not shown) [Compound 4c]: the IC50 at eeAChE (setting [6]) and at eqBuChE was over 10 µM in each case.
Consider `CC(=O)CC1c2ccccc2CCN1c1ccccc1` (stereo not shown) [Compound 2a], for which the IC50 against eeAChE (setting [6]) and at eqBuChE was over 10 µM throughout.
For the compound `O=C(CCC1c2ccccc2CCN1c1ccccc1)c1ccccc1` (stereo not shown) [Compound 3f], the “Selectivity Index for AChE” value on eeAChE is recorded as 2.59. Besides, the IC50 against eeAChE (setting [6]) is 2.42 ± 0.09 µM; at eqBuChE, 6.28 ± 0.36 µM. For the same compound, in data set [3], the chromatographic logP worked out at 3.66. The “PAMPA-BBB Permeability Pe” value in “in vitro” was “impossible to be detected; also recorded: High hydrophobicity; it retained in the membrane”.
In the case of `COc1cc2c(cc1OC)C(CC(=O)c1ccccc1)N(c1ccc(F)cc1)CC2` (stereo not shown) [Compound 3d], the IC50 against eeAChE (setting [6]) is 4.89 ± 0.15 µM; on eqBuChE, over 10 µM. In addition, the “fold lower inhibitory activity towards AChE” value on eeAChE (compared to unsubstituted 3c) amounted to 2.5 fold.
On to `N#CC1c2ccccc2CCN1c1ccccc1` (stereo not shown) [Compound 4a], for which the IC50 against eeAChE (setting [6]) and at eqBuChE was over 10 µM throughout.
In turn, `COc1cc2c(cc1OC)C(CC(=O)c1ccccc1)N(c1ccc(C)cc1)CC2` (stereo not shown) [Compound 3e] displayed an IC50 against eeAChE (setting [6]) of over 10 µM.
Regarding `O=C(CCc1ccccc1)CCC1c2ccccc2CCN1c1ccccc1` (stereo not shown) [Compound 3i], at eeAChE, the “Selectivity Index for AChE” value turned out to be 2.45. On eeAChE (setting [6]), this compound had an IC50 of 1.11 ± 0.04 µM. Also, the IC50 at eqBuChE came out at 2.72 ± 0.2 µM. Further, on AChE [1], the “Type of Inhibition (AChE)” value is given as “Non-competitive” and the Ki was 1060 ± 10 nM. For the same compound, on BuChE [4] (Lineweaver-Burk plot), the “Type of Inhibition (BuChE)” value is “mixed type of inhibition (non-competitive/uncompetitive); also recorded: Mix non-competitive/uncompetitive”. The compound further returned an inhibitory constant (Ki) at BuChE [4] (preincubation 6 min, incubation 2 min) of 1040 ± 100 nM. Besides, on AChE [2], the “Quenching of Trp fluorescence of AChE” value was “quenching of Trp fluorescence was observed” and the “n (number of binding sites)” value was 0.94 ± 0.04. At AChE [2] (setting [7]), the Ksv entry is listed as “(6.96 ± 0.05) × 10^4 M^−1” and the “kq (bimolecular quenching constant)” value is given as “(6.96 ± 0.05) × 10^14 M^−1s^−1”. For the same compound, the “Effect on Trp fluorescence of BuChE” value on BuChE [5] is given as “fluorescence intensity of BuChE was increased”. Further, the chromatographic logP in data set [3] was 3.78. Further, in “in vitro”, the “PAMPA-BBB Permeability Pe” value is given as “impossible to be detected; also recorded: High hydrophobicity; it retained in the membrane”.
Turning to `COc1cc2c(cc1OC)C(CCC(=O)c1ccccc1)N(c1ccccc1)CC2` (stereo not shown) [Compound 3g], the “Selectivity Index for AChE” value on eeAChE is reported as 1.18. Further, the IC50 is 6.78 ± 0.22 µM against eeAChE (setting [6]) and 8.01 ± 0.55 µM at eqBuChE.
As for `c1ccc(N2CCc3ccccc3C2)cc1` [Compound 1a, N-phenyl-1,2,3,4-tetrahydroisoquinoline], the “Residual Activity at 1 × 10^−5 M AChE” value on eeAChE (1 × 10^−5 M, preincubation 6 min, incubation 6 min, 37 °C) is “did not show inhibition potential”. The half-inhibitory concentration (IC50) against eeAChE (setting [6]) and at eqBuChE was over 10 µM in each case.
Take `CC(=O)CC1c2ccccc2CCN1c1ccc(F)cc1` (stereo not shown) [Compound 2b]: the “Selectivity Index for AChE” value at eeAChE is listed as 1.63. The half-inhibitory concentration (IC50) was determined as 5.46 ± 0.58 µM on eeAChE (setting [6]) and 8.9 ± 2.03 µM at eqBuChE.
`COc1ccc(N2CCc3ccccc3C2CC(=O)c2ccccc2)cc1` (stereo not shown) [Compound 3b]: the IC50 on eeAChE (setting [6]) is 9.05 ± 0.81 µM; on eqBuChE, over 10 µM.
As to `COc1cc2c(cc1OC)C(CCC(=O)CCc1ccccc1)N(c1ccc(F)cc1)CC2` (stereo not shown) [Compound 3l], the IC50 at eeAChE (setting [6]) and on eqBuChE was over 10 µM in each case.
Regarding `COc1cc2c(cc1OC)C(C#N)N(c1ccc(F)cc1)CC2` (stereo not shown) [Compound 4b], the concentration for half-maximal inhibition (IC50) against eeAChE (setting [6]) and at eqBuChE was over 10 µM each time.
Regarding `O=C(CC1c2ccccc2CCN1c1ccccc1)c1ccccc1` (stereo not shown) [Compound 3a], the “Selectivity Index for AChE” value on eeAChE came to 1.93. In addition, the values for the concentration for half-maximal inhibition (IC50) at eeAChE (setting [6]) and on eqBuChE were 4.29 ± 0.09 µM and 8.26 ± 1.05 µM, respectively.
The compound `CCC(=O)CC1c2cc(OC)c(OC)cc2CCN1c1ccccc1` (stereo not shown) [Compound 2e] had an IC50 against eeAChE (setting [6]) of over 10 µM.
In the case of `COc1cc2c(cc1OC)C(CC(C)=O)N(c1ccccc1)CC2` (stereo not shown) [Compound 2c], the values for the IC50 on eeAChE (setting [6]) and at eqBuChE were 5.04 ± 0.28 µM and over 10 µM, respectively.
For the compound `O=C(CCc1ccccc1)CCC1c2ccccc2CCN1c1ccc(F)cc1` (stereo not shown) [Compound 3j], the “Selectivity Index for AChE” value on eeAChE is given as 1.55. The IC50 at eeAChE (setting [6]) amounted to 2.91 ± 0.09 µM; on eqBuChE, 4.52 ± 0.15 µM.
For `COc1cc2c(cc1OC)C(CC(C)=O)N(c1ccc(F)cc1)CC2` (stereo not shown) [Compound 2d], the IC50 at eeAChE (setting [6]) and on eqBuChE was over 10 µM throughout.
`COc1cc2c(cc1OC)C(CCC(=O)c1ccccc1)N(c1ccc(F)cc1)CC2` (stereo not shown) [Compound 3h]: the concentration for half-maximal inhibition (IC50) on eeAChE (setting [6]) and at eqBuChE was over 10 µM in each case.
